Measured values taken from patent publication US20200093768A1, “METHOD FOR TREATING DIABETES” (Huanggang Normal University, priority 2018, published 2020).
Marks after values point to notes of the source that are not given here.

Legend:
[1] = Body weight, food intake and BMI of ZDF rats treated once daily for 30 days; assay type: in vivo, rat; set-up: Food Intake / BMI: unit not given here; details: for Change in body weight versus ZDF control (in words): ibuprofen between day 8 and 26; for BMI / Body Weight / Food Intake: oral gavage once daily (metformin 250 mg/kg, ibuprofen 100 mg/kg); for BMI / Food Intake: n=8; for Body Weight: n=8, in g (unit assumed); for Food Intake: recorded weekly
[2] = system: Zucker diabetic fatty (ZDF) rats; assay: HbA1c analysis in whole blood; assay type: in vivo, rat; details: after 30 days of treatment, versus ZDF controls (FIG. 3A)
Description: On study day 30, blood was collected at CRL. […] Glycated hemoglobin (HbA1c) levels in venous whole blood were determined at CRL using the HbA1c Now test kit (Bayer, Whippany, N.J.). HbA1c was measured in treatment groups by immunoassay with anti-HbA1c using tail nick whole blood.

[3] = system: Zucker diabetic fatty (ZDF) rats; assay: Clinical chemistry analysis: insulin, adiponectin, lipid parameters; assay type: in vivo, rat
Description: Plasma analysis of insulin, adiponectin, cytokines and a full clinical chemistry panel with lipid parameters was performed at CRL using commercially available ELISA and colorimetric kits.

[4] = system: Zucker diabetic fatty (ZDF) rats; assay: Anti-inflammatory cytokines (IL-4, IL-10, IL-13) by ELISA; assay type: in vivo, rat; details: for IL-10 plasma levels: versus ZDF controls (FIG. 5B)
Excerpt: On study day 30, blood was collected at CRL.
The expression of inflammatory genes in blood and epididymal adipose tissue was next analyzed. A panel of three anti-inflammatory cytokines in whole blood was quantified by ELISA analysis as a measure for systemic inflammation (FIG. 5). IL-4, IL-10 and IL-13 are involved in the reduction of the inflammatory response through inhibition of NFκB signaling and cytokine release from macrophages.

hyperglycemic adults = details: clinical pilot study, low dosage of ibuprofen; cited from earlier work
[5] = system: Zucker diabetic fatty (ZDF) rats; assay: Fasted and fed blood glucose in ZDF rats; details: for Fasted blood glucose levels: 5 hrs fasted, versus ZDF vehicle control (FIG. 1A)
[6] = system: Zucker diabetic fatty (ZDF) rats; assay: Oral glucose tolerance test (OGTT) on study day 29; details: day 29, overnight fasted, glucose 2 g/kg, versus ZDF vehicle control, metformin from 15 min (p<0.01), ibuprofen at 15 min (p<0.01) and 30 min (p<0.05)
[7] = system: inflammatory genes (COX-2, ICAM-1, IL-1β, IL-6, TNF-α) in whole blood; assay: TaqMan qPCR of inflammatory genes in whole blood; assay type: in vivo, rat; details: ZDF rats, normalized to GAPDH, versus ZDF controls (FIG. 6A)
Description: On study day 30, blood was collected at CRL. HbA1c was measured at 8 hrs on a drop of tail whole blood and then animals were fasted. At 11 hrs, animals were dosed per normal and euthanized at 13 hrs by CO2 asphyxiation. Blood was withdrawn by cardiac puncture and 1 mL of whole blood placed into cryo vials for RNA extraction. Remaining blood was centrifuged (at 2200×g for 10 minutes at 22° C.) and serum (500 uL) pipetted into 96 well plates on dry ice for analysis of the following: insulin, adiponectin, clinical chemistry panel with lipid parameters, and the inflammatory panel. Liver, epididymal fat, kidney, heart and spleen were collected and a representative piece was snap frozen. 100 mg of tissue was transferred into 1.5 mL cold RNA later tubes and stored overnight at 4° C. before being moved to −20° C. […]
In the next set of experiments, the expression of a subset of inflammatory genes were quantified in whole blood (FIG. 6A) and epididymal fat tissue (FIG. 6B): cyclooxygenase-2 (COX-2), intracellular adhesion molecule-1 (ICAM-1), interleukin-1β (IL-1β), interleukin-6 (IL-6) and tumor necrosis factor-α (TNF-α) by TaqMan qPCR analysis. […]

[8] = Day 29 (after overnight fasting), mean
[9] = after 30 days, versus ZDF controls (FIG. 4D-F)

Q: Which “Change in food intake versus ZDF control (in words)” value ([1]; chronic treatment) does the source give for CC(C)Cc1ccc(C(C)C(=O)O)cc1 (stereo not drawn) [ibuprofen, 2-(4-Isobutylphenyl)propanoic acid] here?
A: lower food intake

Q: What about the “Change in body weight versus ZDF control (in words)” value ([1]; chronic treatment) of the same molecule?
A: decline in body weight

Q: And the BMI ([1]; Day 1, mean)?
A: 2.67

Q: What about the “Body Weight” value ([1]; Day 1, mean) of the same molecule?
A: 386.5

Q: What about the “Body Weight” value ([1]; Day 4, mean) of the same molecule?
A: 370.8

Q: And the BMI ([1]; Day 8, mean)?
A: 2.51*

Q: What about the “Body Weight” value ([1]; Day 8, mean) of the same molecule?
A: 376.4**

Q: And the “Body Weight” value ([1]; Day 11, mean)?
A: 379.4*

Q: What about the BMI ([1]; Day 15, mean) of the same molecule?
A: 2.44

Q: And the “Body Weight” value ([1]; Day 15, mean)?
A: 377.9

Q: And the “Body Weight” value ([1]; Day 19, mean)?
A: 376.3*

Q: What about the BMI ([1]; Day 22, mean) of the same molecule?
A: 2.47

Q: And the “Body Weight” value ([1]; Day 22, mean)?
A: 385.8

Q: What about the “Body Weight” value ([1]; Day 26, mean) of the same molecule?
A: 380.6*

Q: And the “Body Weight” value [1, 8]?
A: 359.0

Q: What about the BMI ([1]; Day 29, mean) of the same molecule?
A: 2.28

Q: And the “Food Intake” value ([1]; Day 8, mean)?
A: 225.4**

Q: What about the “Food Intake” value ([1]; Day 15, mean) of the same molecule?
A: 258.8*

Q: What about the “Food Intake” value ([1]; Day 22, mean) of the same molecule?
A: 233.5*

Q: What about the “Food Intake” value ([1]; Day 28, mean) of the same molecule?
A: 239.3*

Q: And the “Glycated hemoglobin (HbA1c)” value [2]?
A: attenuated the glycation of hemoglobin

Q: And the Fasting cholesterol [3, 9]?
A: strong decline

Q: And the HDL [3, 9]?
A: strong decline

Q: What about the IL-4 level ([4]; versus ZDF controls (FIG. 5A)) of the same molecule?
A: significantly increased

Q: What about the IL-10 plasma levels [4] of the same molecule?
A: No significant changes

Q: And the IL-13 levels ([4]; versus ZDF controls (FIG. 5C))?
A: increased

Q: What about the “Glucose and insulin in hyperglycemic adults” value (hyperglycemic adults) of the same molecule?
A: did not reveal major differences

Q: What about the “Fasted blood glucose levels” value [5] of the same molecule?
A: did reduce fasting blood glucose levels but this was not significant

Q: And the “Blood glucose in OGTT” value [6]?
A: significant decrease in blood glucose

Q: For CN(C)C(=N)NC(=N)N [metformin, 1,1-dimethylbiguanide], which “Change in BMI versus ZDF control (in words)” value ([1]; chronic treatment) is on record?
A: did not cause any significant changes

Q: And the “Change in food intake versus ZDF control (in words)” value ([1]; chronic treatment)?
A: did not cause any significant changes

Q: And the “Change in body weight versus ZDF control (in words)” value ([1]; chronic treatment)?
A: did not cause any significant changes

Q: And the BMI ([1]; Day 1, mean)?
A: 2.60

Q: And the “Body Weight” value ([1]; Day 1, mean)?
A: 376.6

Q: What about the “Body Weight” value ([1]; Day 4, mean) of the same molecule?
A: 377.8

Q: What about the BMI ([1]; Day 8, mean) of the same molecule?
A: 2.57

Q: And the “Body Weight” value ([1]; Day 8, mean)?
A: 388.5

Q: And the “Body Weight” value ([1]; Day 11, mean)?
A: 396.1

Q: And the BMI ([1]; Day 15, mean)?
A: 2.47

Q: And the “Body Weight” value ([1]; Day 15, mean)?
A: 390.9

Q: And the “Body Weight” value ([1]; Day 19, mean)?
A: 400.8

Q: What about the BMI ([1]; Day 22, mean) of the same molecule?
A: 2.52

Q: And the “Body Weight” value ([1]; Day 22, mean)?
A: 399.9

Q: What about the “Body Weight” value ([1]; Day 26, mean) of the same molecule?
A: 405.6

Q: What about the “Body Weight” value [1, 8] of the same molecule?
A: 378.9

Q: And the BMI ([1]; Day 29, mean)?
A: 2.39

Q: And the “Food Intake” value ([1]; Day 8, mean)?
A: 255.1

Q: And the “Food Intake” value ([1]; Day 15, mean)?
A: 309.9

Q: What about the “Food Intake” value ([1]; Day 22, mean) of the same molecule?
A: 299.1

Q: And the “Food Intake” value ([1]; Day 28, mean)?
A: 278.8

Q: What about the “Glycated hemoglobin (HbA1c)” value [2] of the same molecule?
A: did not significantly affect

Q: What about the Fasting cholesterol [3, 9] of the same molecule?
A: No significant differences

Q: And the HDL [3, 9]?
A: No significant differences

Q: What about the LDL [3, 9] of the same molecule?
A: No significant differences

Q: And the Plasma insulin levels ([3]; day 30 (FIG. 3B))?
A: 1.54 ng/mL

Q: What about the IL-10 plasma levels [4] of the same molecule?
A: No significant changes

Q: What about the ICAM-1 gene expression [7] of the same molecule?
A: no differences

Q: And the “Fasted blood glucose levels” value [5]?
A: significant decrease

Q: What about the Fed glucose levels ([5]; fed, versus ZDF vehicle control (FIG. 1B)) of the same molecule?
A: significant higher levels on day 22 and 28

Q: And the “Blood glucose in OGTT” value [6]?
A: significant decline in blood glucose
